Common to all, as to type: biochemical
One test concerns the target T1, human IP6K2 (Homo sapiens, UniProt Q9UHH9).
T1 construct: GST (N, cleaved yes); made in house; host or cells: C43 E. coli, pGEX-6P-2
T1 sequence (Q9UHH9 1-426): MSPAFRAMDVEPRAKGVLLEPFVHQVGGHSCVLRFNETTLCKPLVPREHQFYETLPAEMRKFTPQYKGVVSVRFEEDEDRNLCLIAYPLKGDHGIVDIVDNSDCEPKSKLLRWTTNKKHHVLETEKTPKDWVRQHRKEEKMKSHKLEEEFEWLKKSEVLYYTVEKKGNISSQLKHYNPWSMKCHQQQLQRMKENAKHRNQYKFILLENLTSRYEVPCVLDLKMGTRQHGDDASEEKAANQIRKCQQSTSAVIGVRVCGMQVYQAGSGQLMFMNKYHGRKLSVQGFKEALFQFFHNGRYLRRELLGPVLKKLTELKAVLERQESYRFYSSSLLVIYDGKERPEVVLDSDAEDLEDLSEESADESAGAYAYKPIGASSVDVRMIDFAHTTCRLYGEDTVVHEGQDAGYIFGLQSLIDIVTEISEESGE
The test can be described thus: IP6K2 inhibition dose-response assay (ADP-Glo Max). As to the method: (§1) Human IP6K1 (NCBI accession# Q92551), human IP6K2 (NCBI accession# Q9UHH9), and human IP6K3 (NCBI accession# Q96PC2) were purified from C43 E. coli transformed with pGEX-6P-2 expression vector containing GST tagged IP6K1, IP6K2, or IP6K3. The bacteria were grown overnight in a starter culture containing LB (Lennox) and 100μg/mL ampicillin (Sigma). The starter culture was diluted 1:100 into LB (Lennox) and allowed to grow to an optical density of 0.8 at 37°C when protein expression was induced with 1mM IPTG (Calbiochem) for 5hrs. The cells were pelleted with 3000RCF at 4°C and frozen at -80°C. Later, the bacteria was re-suspended in lysis buffer (20mM Tris, 200mM NaCl, 5mM DTT, 1% Triton-X, 0.5% IPEGAL, 1mg/mL lysozyme, and 1 protease inhibitor tablet (Sigma) per 100mL buffer, pH 7.4) and rotated on an end over end shaker for 30 min at 4°C followed by sonication. […]
(§2) For the dose response assays, 7–10 serial 3-fold compound dilutions were prepared in DMSO and then each compound was diluted with assay buffer (50mM Tris, 10mM MgCl2, 2.5mM DTT, 0.02% Triton X-100, pH 6.9) to reach the desired inhibitor concentrations in 25% DMSO. […] Luminescence generated was read on a Tecan Infinite M100 Pro plate reader. Samples were run in quadruplicate and the data was analyzed using a […] variable slope inhibition parameter on GraphPad Prism 7. […]

A further test concerns the target T2, human IP6K3 (Homo sapiens, UniProt Q96PC2).
T2 construct: GST (N, cleaved yes); made in house; host or cells: C43 E. coli, pGEX-6P-2
T2 sequence (Q96PC2 1-410): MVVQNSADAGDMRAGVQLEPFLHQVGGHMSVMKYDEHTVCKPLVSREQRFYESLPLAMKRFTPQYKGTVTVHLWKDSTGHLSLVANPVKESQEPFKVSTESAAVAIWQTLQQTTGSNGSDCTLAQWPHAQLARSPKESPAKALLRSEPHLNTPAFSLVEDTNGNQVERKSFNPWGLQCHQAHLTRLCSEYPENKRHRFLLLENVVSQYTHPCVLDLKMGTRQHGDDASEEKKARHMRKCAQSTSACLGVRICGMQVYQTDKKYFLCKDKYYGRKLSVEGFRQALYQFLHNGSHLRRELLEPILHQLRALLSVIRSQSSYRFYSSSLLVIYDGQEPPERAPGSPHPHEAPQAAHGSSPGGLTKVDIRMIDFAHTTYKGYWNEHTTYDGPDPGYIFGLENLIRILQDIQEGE
Put plainly: IP6K3 inhibition dose-response assay (ADP-Glo Max). The procedure:
as §1, §2

For test [1], the target named is T3, Human IP6K1 (Homo sapiens, UniProt Q92551).
T3 construct: GST (N, cleaved yes); made in house; host or cells: C43 E. coli, pGEX-6P-2
T3 sequence (Q92551 whole entry): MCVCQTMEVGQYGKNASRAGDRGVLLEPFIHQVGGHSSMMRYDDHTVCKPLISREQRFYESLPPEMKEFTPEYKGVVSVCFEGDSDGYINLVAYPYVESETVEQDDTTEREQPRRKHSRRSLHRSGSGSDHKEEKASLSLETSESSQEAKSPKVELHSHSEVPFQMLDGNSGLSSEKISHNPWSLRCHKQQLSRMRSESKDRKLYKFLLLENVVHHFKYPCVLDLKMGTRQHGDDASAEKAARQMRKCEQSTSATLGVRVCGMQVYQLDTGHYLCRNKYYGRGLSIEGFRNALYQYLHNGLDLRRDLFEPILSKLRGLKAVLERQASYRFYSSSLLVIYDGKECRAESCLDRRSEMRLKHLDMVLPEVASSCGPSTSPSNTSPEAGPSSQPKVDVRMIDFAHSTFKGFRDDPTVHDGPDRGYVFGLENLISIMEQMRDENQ
Put plainly: IP6K1 high-throughput screen of the Sigma LOPAC (ADP-Glo Max, single point).

The test system of test [2] is enzymes involved in the detection steps of the kit. The test can be described thus: Counter-screen against the detection steps of the ADP-Glo Max kit (no enzyme, no IP6). The settings on record: 10μM compound, 25μM ADP and 975μM ATP. The procedure: The Sigma LOPAC was obtained as 10mM DMSO stock solutions from the Johns Hopkins ChemCore facility. Each compound was first diluted to 50μM and 25% DMSO in assay buffer. The inhibition assay was performed as described above with 1μL of compound and 4μL of kinase master mix so that the final compound concentration was 10μM in 5% DMSO. […] Hits were determined based by the Z score, which is calculated as Z = (Xi-Xavg)/Sx, where Xi is the raw measurement on the i^th compound, Xavg and Sx are the mean and the standard deviation, respectively, of all measurements within the plate. Hits identified from the screen were repeated in the assay in quadruplicate for confirmation. These confirmed hits were then tested to determine if they inhibited the enzymes involved in the detection steps of the kit. Possible interference of the compounds was assessed by measuring the degree to which they inhibited the signal produced by a 25μM ADP in the presence of 975μM ATP. This experiment was run as described above for the inhibition assays in the absence of enzyme and IP6.

Test [3] deals with T3, Human IP6K1. The test can be described thus: IP6K1 inhibition dose-response assay (ADP-Glo Max).
Test [4] deals with T3, Human IP6K1. Put plainly: Inositol polyphosphate separation by PAGE (5PP-IP5 production by IP6K1). The settings on record: 10μM inhibitor, 1mM ATP, 250μM IP6, 60nM IP6K1, 2 hours, 37°C.
[5] abbreviates: LOPAC single-point screen, ADP-Glo Max luminescence raw signal per well.
Setting [6] is: LOPAC single-point screen, Z-score relative to plate average and StDev.
Setting [7] is: Sigma LOPAC single-point screen, ADP-Glo Max raw signal per well.
[8] abbreviates: Sigma LOPAC single-point screen, Z-score from plate average and StDev.
The mark [9] stands for this setting: LOPAC single-point screen, ADP-Glo Max raw signal per well.
Setting [10] is: LOPAC single-point screen, Z-score against plate average and StDev.
Where [11] appears, read: LOPAC single-point screen, Z-score from raw signal with plate average and StDev.

Counter-ions that a name gives are not always drawn. Like-named read-outs stand apart in the source and are kept apart here.

Consider `O=c1c(O)c(-c2cc(O)c(O)c(O)c2)oc2cc(O)cc(O)c12` [Myricetin], for which the half-maximal inhibitory concentration (IC50) at human IP6K2 (1mM ATP, 100μM IP6, 7.5nM IP6K2, 30 minutes, 37°C, read-out: IC50 IP6K2) is 23.4 ± 1.1 µM; at human IP6K3 (1mM ATP, 100μM IP6, 120nM IP6K3, 120 minutes, 37°C, read-out: IC50 IP6K3), 4.93 ± 1.14 µM. Besides, at Human IP6K1 [1] (setting [5]), the “Raw Signal” value is 8540. Moreover, the “Inhibition of enzyme activity in initial LOPAC screen” value on Human IP6K1 [1] (single point 100μM compound, 62.5μM ATP) stood at 100%. In addition, the “Signal loss in counter-screen of detection steps” value in test [2] is reported as “significantly inhibit the secondary reagents”.
In the case of `NC(Cc1cc(O)c(O)cc1O)C(=O)O` (racemic) [6-Hydroxy-DL-Dopa], the IC50 at Human IP6K1 [3] was found to be 1.84 ± 1.03 µM; at human IP6K2 it was 1.66 ± 1.06 µM; against human IP6K3 it was 11.1 ± 1.13 µM. The “Raw Signal” value at Human IP6K1 [1] (setting [5]) was 10170. The Z-score on Human IP6K1 [1] (setting [6]) was -9.138. Further, the “Signal loss in counter-screen of detection steps” value in test [2] is “neither TNP nor 6-Hydroxy-DL-Dopa showed significant signal loss”. In addition, the “Inhibition of 5PP-IP5 production by IP6K1 (PAGE, Toluidine Blue)” value at Human IP6K1 [4] is “inhibited below the limit of detection”.
Consider `C[C@]12CC[C@@H]3c4ccc(O)cc4CC[C@H]3[C@@H]1CC[C@@H]2O` [beta-Estradiol], for which the “Raw Signal” value at Human IP6K1 [1] (setting [5]) is 51790. The Z-score at Human IP6K1 [1] (setting [6]) was -0.6858.
Take `CCCn1c(=O)[nH]c(=O)c2nc[nH]c21` [3-n-Propylxanthine]: at Human IP6K1 [1] (setting [7]), the “Raw Signal” value is reported as 57454. In addition, the Z-score at Human IP6K1 [1] (setting [8]) is 0.5142.
Turning to `CO/N=C(\C(=O)N[C@@H]1C(=O)N2C(C(=O)O)=C(COC(C)=O)CS[C@H]12)c1csc(N)n1` [Cefotaxime sodium], the “Raw Signal” value at Human IP6K1 [1] (setting [5]) came to 53540. Moreover, the Z-score on Human IP6K1 [1] (setting [6]) is -0.7702.
As for `O=C(O)/C=C\C(=O)O.O=C(O)/C=C\C(=O)O.c1ccc2nc(N3CCNCC3)ccc2c1` [Quipazine dimaleate], the “Raw Signal” value at Human IP6K1 [1] (setting [9]) is on record as 57228. Moreover, the Z-score at Human IP6K1 [1] (setting [10]) came out at 0.234.
For the compound `C[C@H]1c2cccc(O)c2C(=O)C2=C(O)[C@]3(O)C(=O)C(C(N)=O)=C(O)[C@@H](N(C)C)[C@@H]3[C@@H](O)[C@@H]21` [Doxycycline hydrochloride], the “Raw Signal” value at Human IP6K1 [1] (setting [5]) is given as 51944. For the same compound, the Z-score at Human IP6K1 [1] (setting [6]) was -0.6546.
As to `CCN1CCC[C@H]1CNC(=O)c1c(OC)ccc(I)c1O` [S(-)-IBZM], on Human IP6K1 [1] (setting [5]), the “Raw Signal” value came out at 51122. Moreover, the Z-score at Human IP6K1 [1] (setting [6]) is on record as -0.5497.
As for `CC(=O)O[C@H]1C[C@@]2(C)[C@@H](C[C@@H](O)[C@H]3[C@@]4(C)CC[C@@H](O)[C@@H](C)[C@@H]4CC[C@@]32C)/C1=C(\CCC=C(C)C)C(=O)[O-].[Na+]` [Fusidic acid sodium], the “Raw Signal” value on Human IP6K1 [1] (setting [9]) is listed as 56091. On Human IP6K1 [1] (setting [10]), this compound yielded a Z-score of 0.1876.
On to `CC(=O)CCCCn1c(=O)c2c(ncn2C)n(C)c1=O` [Pentoxifylline], for which the “Raw Signal” value at Human IP6K1 [1] (setting [9]) turned out to be 53271. For the same compound, on Human IP6K1 [1] (setting [11]), the Z-score is reported as -0.1886.
As for `Br.Br.N=C(N)SCCc1cccc(CCSC(=N)N)c1` [1,3-PBIT dihydrobromide], the “Raw Signal” value on Human IP6K1 [1] (setting [7]) is listed as 61855. For the same compound, the Z-score at Human IP6K1 [1] (setting [8]) was 1.133.
`CN1[C@@H](CC(=O)c2ccccc2)CCC[C@H]1C[C@H](O)c1ccccc1.Cl` [alpha-Lobeline hydrochloride]: the “Raw Signal” value at Human IP6K1 [1] (setting [9]) stood at 53929. Besides, the Z-score at Human IP6K1 [1] (setting [10]) is -0.07805.
In the case of `Cc1nc2ccccn2c(=O)c1CCN1CCC(C(=O)c2ccc(F)cc2)CC1` [Pirenperone], the “Raw Signal” value at Human IP6K1 [1] (setting [9]) was 53743. For the same compound, the Z-score on Human IP6K1 [1] (setting [11]) is on record as -0.4431.
For the compound `C[C@](N)(Cc1ccc(O)c(O)c1)C(=O)O` [L-alpha-Methyl DOPA], the “Raw Signal” value at Human IP6K1 [1] (setting [5]) is 24071. Moreover, the Z-score at Human IP6K1 [1] (setting [6]) is given as -5.095.
For `NC(CCCCCP(=O)(O)O)C(=O)O` (racemic) [(±)-2-Amino-7-phosphonoheptanoic acid], on Human IP6K1 [1], the “Raw Signal” value is given as 66212 and the Z-score worked out at 1.462.
For `Clc1ccc(C(c2ccc(Cl)cc2)n2cc[n+](CC(OCc3ccc(Cl)cc3Cl)c3ccc(Cl)cc3Cl)c2)cc1` (stereo not drawn) [Calmidazolium chloride], on Human IP6K1 [1] (setting [9]), the “Raw Signal” value is given as 57343. The Z-score on Human IP6K1 [1] (setting [11]) is recorded as -0.1004.
With `NC(N)=Nc1nc(CSCCC(N)=NS(N)(=O)=O)cs1` [Famotidine], the “Raw Signal” value at Human IP6K1 [1] (setting [9]) came to 53127. Moreover, on Human IP6K1 [1] (setting [11]), the Z-score is reported as -0.4143.
Regarding `c1ccc2cc(-c3ncc[nH]3)ccc2c1` [Benazoline oxalate], on Human IP6K1 [1] (setting [7]), the “Raw Signal” value worked out at 61441. The compound further displayed a Z-score on Human IP6K1 [1] (setting [8]) of 0.6214.
Regarding `CN(C)CCC=C1c2ccccc2COc2ccccc21` [Doxepin hydrochloride], the “Raw Signal” value on Human IP6K1 [1] (setting [7]) came to 58742. The compound further displayed a Z-score on Human IP6K1 [1] (setting [8]) of 0.726.
On to `CCCCNC(=O)NS(=O)(=O)c1ccc(C)cc1` [Tolbutamide], for which the “Raw Signal” value on Human IP6K1 [1] (setting [5]) turned out to be 65444. Further, the Z-score on Human IP6K1 [1] (LOPAC single-point screen, Z-score from plate average and StDev) was 1.83.
On to `CC(C)Cc1ccc([C@H](C)C(=O)O)cc1` [S(+)-Ibuprofen], for which, at Human IP6K1 [1] (setting [9]), the “Raw Signal” value is on record as 55445. Also, at Human IP6K1 [1] (setting [10]), the Z-score is recorded as 0.1767.
For the compound `CCCOC(=O)c1c(-c2ccccc2)nc(CC)c(C(=O)SCC)c1CCC` [MRS 1523], the “Raw Signal” value on Human IP6K1 [1] (setting [9]) turned out to be 53053. At Human IP6K1 [1] (setting [11]), the Z-score is given as -0.2252.
Consider `O=C(O)CCc1nc(-c2ccccc2)c(-c2ccccc2)o1` [Oxaprozin], for which the “Raw Signal” value at Human IP6K1 [1] (setting [7]) was found to be 57771. Also, the Z-score on Human IP6K1 [1] (setting [8]) stood at 0.5675.

The values are drawn from publication PMC5706701, “Development of a homogenous high-throughput assay for inositol hexakisphosphate kinase 1 activity” (PLoS ONE, 2017).
